Experimental data: the Deep4Chem optical property database
Each block holds one compound with its values, some of them ahead of it.

Assay: solvent given as SMILES

absorption maximum (in CC#N): 390 nm | absorption maximum (in CO): 400 nm | absorption maximum (in ClCCl): 396 nm
Compound: O=C1c2ccccc2-c2c(-c3cc(Br)ccc3O)[nH]c(=O)n21

absorption maximum (in ClCCl): 656 nm
Compound: COc1c2ccccc2c(OC)c2c(C#Cc3ccccc3)c3cc4sccc4cc3c(C#Cc3ccccc3)c12

absorption maximum (in CC#N): 536 nm | absorption maximum (in CCCCCC): 556 nm | absorption maximum (in CCOC(C)=O): 545 nm | absorption maximum (in CO): 536 nm | absorption maximum (in ClCCl): 545 nm
Compound: CCCSC1=[N+]2C(=C(c3ccccc3)c3ccc(SCCC)n3[B-]2(F)F)C=C1SC#N

absorption maximum (in C1COCCO1): 291 nm
Compound: COc1ccc(-c2ccc(-c3ccc(F)cc3)cc2)cc1

absorption maximum (in ClCCl): 336 nm
Compound: N#Cc1ccc(-n2c(-c3ccc(-c4ccc(-c5nc6c7ccccc7c7ccccc7c6n5-c5ccc(C#N)c6ccccc56)c5ccccc45)c4ccccc34)nc3c4ccccc4c4ccccc4c32)c2ccccc12

absorption maximum (in ClCCl): 300 nm
Compound: CCCCCCCCCn1c(-c2cc(-c3nc4ccccc4n3CCCCCCCCC)cc(-c3nc4ccccc4n3CCCCCCCCC)c2)nc2ccccc21

absorption maximum (in C1CCOC1): 366 nm
Compound: N#Cc1cc(-n2c3ccccc3c3cc(Br)ccc32)c(-n2c3ccccc3c3cc(Br)ccc32)cc1C#N

absorption maximum (in ClC(Cl)Cl): 348 nm
Compound: CC(C)(C)c1ccc2oc3nc4oc5ccc(-n6c7ccccc7c7cc(-n8c9ccccc9c9ccccc98)ccc76)cc5c4cc3c2c1

The remaining lines, values behind:

Compound: CCOC(=O)/N=c1/oc2cc(N(CC)CC)ccc2cc1C#N
absorption maximum (in ClCCl): 440 nm

Compound: O=S(=O)(c1ccc(-c2ccc(-n3c4ccccc4c4ccccc43)cc2)cc1)c1ccc(-c2ccc(-n3c4ccccc4c4ccccc43)cc2)cc1
absorption maximum (in Cc1ccccc1): 341 nm

Compound: O=c1c2cc(F)c(N3CCOCC3)cc2oc2cc(N3CCOCC3)c(F)cc12
absorption maximum (in CCO): 344 nm

Compound: CN(C)c1ccc(/C=C/c2cc(/C=C/c3ccc(N(C)C)cc3)nc(N)n2)cc1
absorption maximum (in Cc1ccccc1): 414 nm | absorption maximum (in ClC(Cl)Cl): 426 nm

Compound: COc1ccc(N(c2ccc(OC)cc2)c2ccc3ccc4c(B(c5c(C)cc(C)cc5C)c5c(C)cc(C)cc5C)ccc5ccc2c3c54)cc1
absorption maximum (in C1CCOC1): 465 nm | absorption maximum (in CC(C)=O): 459 nm | absorption maximum (in CCCCCC): 463 nm | absorption maximum (in Cc1ccccc1): 469 nm | absorption maximum (in ClC(Cl)Cl): 461 nm | absorption maximum (in ClCCl): 461 nm

Compound: C(S/C=C/c1ccc(-c2ccc(/C=C/SC=C3CCCC3)cc2)cc1)=C1CCCC1
absorption maximum (in ClCCl): 352 nm

Compound: O=S(=O)(c1cccc(-n2c3ccccc3c3ccccc32)c1)c1cccc(-n2c3ccccc3c3ccccc32)c1
absorption maximum (in C1CCOC1): 323 nm | absorption maximum (in Cc1ccccc1): 338 nm | absorption maximum (in ClC(Cl)Cl): 338 nm

Compound: COc1cccc2cc(-c3cc4cccc(OC)c4oc3=O)oc12
absorption maximum (in CC#N): 352 nm | absorption maximum (in CCOC(C)=O): 351 nm | absorption maximum (in CS(C)=O): 359 nm | absorption maximum (in Cc1ccccc1): 358 nm | absorption maximum (in O): 363 nm

Compound: CCCCCCCCn1nnc(-c2ccc(C#Cc3ccc(C#Cc4ccc(-c5nnn(CCCCCCCC)n5)cc4)c4nc5c6ccccc6c6ccccc6c5nc34)cc2)n1
absorption maximum (in C1CCOC1): 428 nm | absorption maximum (in Cc1ccccc1): 428 nm | absorption maximum (in ClCCl): 428 nm
